Results reported in patent US6025358A, “Double prodrugs of potent GP IIb/IIIa antagonists” (G. D. Searle & Co., priority 1999, dated 2000).
Structures can show the parent of a compound that is named as a salt.

These compounds were tested on platelet aggregation (assay: Ex vivo screening of oral GP IIb/IIIa inhibitors: inhibition of collagen-induced platelet aggregation in PRP after oral dosing in beagles). Conditions: Canis lupus familiaris, Platelet, beagle dogs, 5 mpk, n = 2, 32 hours post-dosing, collagen agonist, read-out: Percent inhibition of platelet aggregation at 32 hour post-dosing.
Protocol: Beagles (8-13 kg, various sources) of either sex are dosed orally with compound in a gelatin capsule. Blood samples are drawn from the cephalic vein using a 23 ga infusion butterfly. Samples for platelet aggregation and drug concentration are taken prior to dosing and 0.5, 1, 2, 3, 5, 7 and 10 hours after dosing and periodically on subsequent days until inhibition of platelet aggregation is less than 30%. Animals are fasted, with ad lib access to water, overnight prior to dosing. For measurement of plasma concentration blood is drawn into a 3 ml tube containing 45 USP units of Na Heparin. Blood is centrifuged at 1700×g for 10 minutes, plasma is aspirated and frozen at -20° C. until analyzed by HPLC. For measurement of platelet aggregation, blood is drawn into 2 2.0 ml tubes containing 0.2 ml of 3.8% Na Citrate. Blood is centrifuged at 250×g for 6 minutes and the platelet rich plasma (PRP) is aspirated. The remaining blood is centrifuged at 1700×g for 10 minutes and platelet poor plasma (PPP) is aspirated. Platelet aggregation is performed in a Bio-Data PAP-4 aggregometer (Bio-Data Corp., Havertown, Pa.) using collagen (100 μg/ml final concentration; Helena Laboratories, Beaumont, Tex.) as the agonist. Briefly, baseline (100% aggregation) is set using PPP; PRP is incubated at 37° C. for one minute without stirring and one minute with stirring, agonist is added and aggregation is allowed to develop for 4 minutes. Percent aggregation post-dosing is compared to percent aggregation pre-dosing to determine percent inhibition.
Percent inhibition of platelet aggregation at 32 hour post-dosing in
beagle dogs (5 mpk, n = 2)

Question: For `CC(C)OC(=O)CCNC(=O)N[C@H]1CCN(c2ccc(C(N)=NO)cc2)C1=O` [1(b), N-[[[(3S)-1-[4-[(hydroxyamino)iminomethyl]phenyl]-2-oxo-3-pyrrolidinyl]amino]carbonyl]-β-alanine 1-methylethyl ester monohydrochloride], which inhibition in vivo at 5 mg/kg is on record?
Answer: 71%

Question: For `CCCOC(=O)CCNC(=O)N[C@H]1CCN(c2ccc(C(N)=NO)cc2)C1=O` [1(c), N-[[[(3S)-1-[4-[(hydroxyamino)iminomethyl]phenyl]-2-oxo-3-pyrrolidinyl]amino]carbonyl]-β-alanine propyl ester monohydrochloride], which inhibition in vivo at 5 mg/kg is on record?
Answer: 94%

Question: How did the inhibition in vivo at 5 mg/kg turn out when `CC(C)COC(=O)CCNC(=O)N[C@H]1CCN(c2ccc(C(N)=NO)cc2)C1=O` [1(d), N-[[[(3S)-1-[4-[(hydroxyamino)iminomethyl]phenyl]-2-oxo-3-pyrrolidinyl]amino]carbonyl]-β-alanine 2-methylpropyl ester monohydrochloride] was run?
Answer: 45%

Question: For `CC(C)(C)COC(=O)CCNC(=O)N[C@H]1CCN(c2ccc(C(N)=NO)cc2)C1=O` [1(f), N-[[[(3S)-1-[4-[(hydroxyamino)iminomethyl]phenyl]-2-oxo-3-pyrrolidinyl]amino]carbonyl]-β-alanine 2,2-dimethylpropyl ester], which inhibition in vivo at 5 mg/kg is on record?
Answer: 87%

Question: With `CCCCCOC(=O)CCNC(=O)N[C@H]1CCN(c2ccc(C(N)=NO)cc2)C1=O` [1(h), N-[[[(3S)-1-[4-[(hydroxyamino)iminomethyl]phenyl]-2-oxo-3-pyrrolidinyl]amino]carbonyl]-β-alanine pentyl ester monohydrochloride] as the compound, how does the inhibition in vivo at 5 mg/kg read?
Answer: 39%

Question: For `COC(=O)CCNC(=O)N[C@H]1CCN(c2ccc(C(=N)NOC(=O)NCCN(C)C)cc2)C1=O` [3(b), N-[[[(3S)-1-[4-(1-imino-8-methyl-4-oxo-3-oxa-2,5,8-triazanon-1-yl)phenyl]-2-oxo-3-pyrrolidinyl]amino]carbonyl]-β-alanine methyl ester], which inhibition in vivo at 5 mg/kg is on record?
Answer: 54%

Question: How did the inhibition in vivo at 5 mg/kg turn out when `CN1CCN(C(=O)ONC(=N)c2ccc(N3CC[C@H](NC(=O)NCCC(=O)OC4CCCCC4)C3=O)cc2)CC1` [3(cc), N-[[[(3S)-1-[4-[imino[[[(4-methyl-1-piperazinyl)carbonyl]oxy]amino]methyl]phenyl]-2-oxo-3-pyrrolidinyl]amino]carbonyl]-β-alanine cyclohexyl ester dihydrochloride monohydrate] was run?
Answer: 22%

Question: With `CCOC(=O)CCNC(=O)N[C@H]1CCN(c2ccc(C(=N)NOC(=O)N(C)CCN(C)C)cc2)C1=O` [3(e), N-[[[(3S)-1-[4-(1-imino-5,8-dimethyl-4-oxo-3-oxa-2,5,8-triazanon-1-yl)phenyl]-2-oxo-3-pyrrolidinyl]amino]carbonyl]-β-alanine ethyl ester dihydrochloride] as the compound, how does the inhibition in vivo at 5 mg/kg read?
Answer: 54%

Question: How did the inhibition in vivo at 5 mg/kg turn out when `CCOC(=O)CCNC(=O)N[C@H]1CCN(c2ccc(C(=N)NOC(=O)NCCN(C)C)cc2)C1=O` [3(f), N-[[[(3S)-1-[4-(1-imino-8-methyl-4-oxo-3-oxa-2,5,8-triazanon-1-yl)phenyl]-2-oxo-3-pyrrolidinyl]amino]carbonyl]-β-alanine ethyl ester monoacetate] was run?
Answer: 35%

Question: `CCCCCOC(=O)CCNC(=O)N[C@H]1CCN(c2ccc(C(=N)NOC(=O)N3CCN(C)CC3)cc2)C1=O` [3(ff), N-[[[(3S)-1-[4-[imino[[[(4-methyl-1-piperazinyl)carbonyl]oxy]amino]methyl]-phenyl]-2-oxo-3-pyrrolidinyl]amino]carbonyl]-β-alanine pentyl ester dihydrochloride] was tested. Which inhibition in vivo at 5 mg/kg did it give?
Answer: 70%

Question: How did the inhibition in vivo at 5 mg/kg turn out when `CCOC(=O)CCNC(=O)N[C@H]1CCN(c2ccc(C(=N)NOC(=O)N(C)CCCN(C)C)cc2)C1=O` [3(g), N-[[[(3S)-1-[4-(1-imino-5,9-dimethyl-4-oxo-3-oxa-2,5,9-triazadec-1-yl)phenyl]-2-oxo-3-pyrrolidinyl]amino]carbonyl]-β-alanine ethyl ester dihydrochloride] was run?
Answer: 69%

Question: How did the inhibition in vivo at 5 mg/kg turn out when `CC(C)OC(=O)CCNC(=O)N[C@H]1CCN(c2ccc(C(=N)NOC(=O)N3CCN(C)CC3)cc2)C1=O` [3(h), N-[[[(3S)-1-[4-[imino[[[(4-methyl-1-piperazinyl)carbonyl]oxy]amino]methyl]phenyl]-2-oxo-3-pyrrolidinyl]amino]carbonyl]-β-alanine 1-methylethyl ester dihydrochloride] was run?
Answer: 56%

Question: How did the inhibition in vivo at 5 mg/kg turn out when `CC(C)OC(=O)CCNC(=O)N[C@H]1CCN(c2ccc(C(=N)NOC(=O)NCCN(C)C)cc2)C1=O` [3(j), N-[[[(3S)-1-[4-(1-imino-8-methyl-4-oxo-3-oxa-2,5,8-triazanon-1-yl)phenyl]-2-oxo-3-pyrrolidinyl]amino]carbonyl]-β-alanine 1-methylethyl ester monoacetate] was run?
Answer: 34%

Question: For `CCCOC(=O)CCNC(=O)N[C@H]1CCN(c2ccc(C(=N)NOC(=O)N3CCN(C)CC3)cc2)C1=O` [3(l), N-[[[(3S)-1-[4-[imino[[[(4-methyl-1-piperazinyl)carbonyl]oxy]amino]methyl]phenyl]-2-oxo-3-pyrrolidinyl]amino]carbonyl]-β-alanine propyl ester dihydrochloride], which inhibition in vivo at 5 mg/kg is on record?
Answer: 71%

Question: For `CCCOC(=O)CCNC(=O)N[C@H]1CCN(c2ccc(C(=N)NOC(=O)N(C)CCN(C)C)cc2)C1=O` [3(m), N-[[[(3S)-1-[4-(1-imino-5,8-dimethyl-4-oxo-3-oxa-2,5,8-triazanon-1-yl)phenyl]-2-oxo-3-pyrrolidinyl]amino]carbonyl]-β-alanine propyl ester dihydrochloride], which inhibition in vivo at 5 mg/kg is on record?
Answer: 80%

Question: With `CCCOC(=O)CCNC(=O)N[C@H]1CCN(c2ccc(C(=N)NOC(=O)NCCN(C)C)cc2)C1=O` [3(n), N-[[[(3S)-1-[4-(1-imino-8-methyl-4-oxo-3-oxa-2,5,8-triazanon-1-yl)phenyl]-2-oxo-3-pyrrolidinyl]amino]carbonyl]-β-alanine propyl ester monoacetate monohydrate] as the compound, how does the inhibition in vivo at 5 mg/kg read?
Answer: 73%

Question: Which inhibition in vivo at 5 mg/kg does the source give for `CC(C)COC(=O)CCNC(=O)N[C@H]1CCN(c2ccc(C(=N)NOC(=O)N(C)CCN(C)C)cc2)C1=O` [3(q), N-[[[(3S)-1-[4-(1-imino-5,8-dimethyl-4-oxo-3-oxa-2,5,8-triazanon-1-yl)phenyl]-2-oxo-3-pyrrolidinyl]amino]carbonyl]-β-alanine 2-methylpropyl ester dihydrochloride] here?
Answer: 57%

Question: Which inhibition in vivo at 5 mg/kg does the source give for `CC(C)COC(=O)CCNC(=O)N[C@H]1CCN(c2ccc(C(=N)NOC(=O)NCCN(C)C)cc2)C1=O` [3(r), N-[[[(3S)-1-[4-(1-imino-8-methyl-4-oxo-3-oxa-2,5,8-triazanon-1-yl)phenyl]-2-oxo-3-pyrrolidinyl]amino]carbonyl]-β-alanine 2-methylpropyl ester monoacetate] here?
Answer: 46%

Question: With `CCCCOC(=O)CCNC(=O)N[C@H]1CCN(c2ccc(C(=N)NOC(=O)N(C)CCN(C)C)cc2)C1=O` [3(u), N-[[[(3S)-1-[4-(1-imino-5,8-dimethyl-4-oxo-3-oxa-2,5,8-triazanon-1-yl)phenyl]-2-oxo-3-pyrrolidinyl]amino]carbonyl]-β-alanine butyl ester dihydrochloride] as the compound, how does the inhibition in vivo at 5 mg/kg read?
Answer: 63%

Question: For `CCOC(=O)CCNC(=O)N[C@H]1CCN(c2ccc(C(N)=NOC(=O)N(C)C)cc2)C1=O` [4(a), N-[[[(3S)-1-[4-[[[[(dimethylamino)carbonyl]oxy]amino]iminomethyl]phenyl]-2-oxo-3-pyrrolidinyl]amino]carbonyl]-β-alanine ethyl ester], which inhibition in vivo at 5 mg/kg is on record?
Answer: 63%

Question: For `CC(C)OC(=O)CCNC(=O)N[C@H]1CCN(c2ccc(C(N)=NOC(=O)N(C)C)cc2)C1=O` [4(b), N-[[[(3S)-1-[4-[[[[(dimethylamino)carbonyl]oxy]amino]iminomethyl]phenyl]-2-oxo-3-pyrrolidinyl]amino]carbonyl]-β-alanine 1-methylethyl ester], which inhibition in vivo at 5 mg/kg is on record?
Answer: 20%

Question: For `CCCOC(=O)CCNC(=O)N[C@H]1CCN(c2ccc(C(N)=NOC(=O)N(C)C)cc2)C1=O` [4(c), N-[[[(3S)-1-[4-[[[[(dimethylamino)carbonyl]oxy]amino]iminomethyl]phenyl]-2-oxo-3-pyrrolidinyl]amino]carbonyl]-β-alanine propyl ester], which inhibition in vivo at 5 mg/kg is on record?
Answer: 64%

Question: Which inhibition in vivo at 5 mg/kg does the source give for `CCOC(=O)CCNC(=O)N[C@H]1CCN(c2ccc(C(N)=NOC(N)=O)cc2)C1=O` [5(a), N-[[[(3S)-1-[4-[[[(aminocarbonyl)oxy]amino]iminomethyl]phenyl]-2-oxo-3-pyrrolidinyl]amino]carbonyl]-β-alanine ethyl ester] here?
Answer: 82%

Same assay, conditions: beagle dogs, 5 mpk, n = 2, 26 hours post-dosing, collagen agonist

Question: For `COC(=O)CCNC(=O)N[C@H]1CCN(c2ccc(C(=N)NOC(=O)N(C)CCN(C)C)cc2)C1=O.Cl` [3(a), N-[[[(3S)-1-[4-(1-imino-5,8-dimethyl-4-oxo-3-oxa-2,5,8-triazanon-1-yl)phenyl]-2-oxo-3-pyrrolidinyl]amino]carbonyl]-β-alanine methyl ester monohydrochloride], which “% inhibition of platelet aggregation @ 26 hours” value is on record?
Answer: 33%

Question: How did the “% inhibition of platelet aggregation @ 26 hours” value turn out when `CCOC(=O)CCNC(=O)N[C@H]1CCN(c2ccc(C(=N)NOC(=O)N3CCN(C)CC3)cc2)C1=O.Cl.Cl` [3(d), N-[[[(3S)-1-[4-[imino[[[(4-methyl-1-piperazinyl)carbonyl]oxy]amino]methyl]phenyl]-2-oxo-3-pyrrolidinyl]amino]carbonyl]-β-alanine ethyl ester dihydrochloride] was run?
Answer: 88%
